From patent US20190374533A1, “COMPOUNDS AND METHODS FOR INHIBITING NHE-MEDIATED ANTIPORT IN THE TREATMENT OF DISORDERS ASSOCIATED WITH FLUID RETENTION OR SALT OVERLOAD AND GASTROINTESTINAL TRACT DISORDERS” (Ardelyx, Inc., priority 2008, published 2019)
Where a name gives a salt, the structure may show the parent alone.

Experiments:
NHE3 [1] = target: T1, NHE3 (Homo sapiens, UniProt P48764); assay: Sustained inhibition of apical acid secretion in human organoid monolayer cell cultures (ileum); assay type: cell-based; conditions: 1 μM apical, dosed day 6, apical media pH day 8
T1 construct: due to the increase in NHE3 expression after differentiation; endogenous in cells; host or cells: human ileum / duodenum organoid-derived monolayers
T1 sequence (P48764 26-834): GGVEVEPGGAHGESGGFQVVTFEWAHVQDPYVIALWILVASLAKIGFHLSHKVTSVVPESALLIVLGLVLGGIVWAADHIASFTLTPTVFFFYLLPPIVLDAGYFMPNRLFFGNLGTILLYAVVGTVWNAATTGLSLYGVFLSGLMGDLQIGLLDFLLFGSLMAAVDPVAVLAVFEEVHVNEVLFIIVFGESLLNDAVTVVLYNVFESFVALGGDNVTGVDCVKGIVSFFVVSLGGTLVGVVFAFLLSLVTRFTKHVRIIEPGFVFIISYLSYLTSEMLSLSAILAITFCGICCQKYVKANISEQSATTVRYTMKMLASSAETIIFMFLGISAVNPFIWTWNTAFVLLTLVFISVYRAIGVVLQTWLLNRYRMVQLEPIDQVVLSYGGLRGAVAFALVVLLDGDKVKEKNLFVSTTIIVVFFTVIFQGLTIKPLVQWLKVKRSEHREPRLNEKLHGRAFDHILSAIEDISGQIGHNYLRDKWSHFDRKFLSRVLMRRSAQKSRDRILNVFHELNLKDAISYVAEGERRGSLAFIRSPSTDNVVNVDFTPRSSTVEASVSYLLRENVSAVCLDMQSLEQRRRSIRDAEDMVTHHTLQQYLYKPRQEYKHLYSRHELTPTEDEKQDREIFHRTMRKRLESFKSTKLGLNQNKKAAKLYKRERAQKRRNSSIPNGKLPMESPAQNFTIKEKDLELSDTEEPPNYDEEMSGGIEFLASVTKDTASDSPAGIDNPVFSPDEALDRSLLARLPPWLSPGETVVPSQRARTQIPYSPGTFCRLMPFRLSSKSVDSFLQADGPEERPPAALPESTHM
Procedure: Basal media (BM) consisted of advanced DMEM/F12 containing 10 mM HEPES (Invitrogen, 15630-080), 1:100 Glutamax (Invitrogen, 35050-061), and 1:100 penicillin/streptomycin (Invitrogen, 15140-122). […] Growth factors used included 50 ng per mL mouse EGF (Peprotech, 315-09), 100 ng per mL mouse noggin (Peprotech, 250-38), 500 ng per mL human R-spondin 1 (R&D, 4645-RS), 100 ng per mL mouse Wnt-3a (R&D, 1324-WN), 20 μM Y-27632 (Tocris, 1254), 10 mM nicotinamide (Sigma, N0636), 500 nM A83-01 (Tocris, 2939), 10 μM SB202190 (Tocris, 1264). Transwells were 0.4 μm pore polyester membrane 24-well Transwell inserts (Corning). Cultures were incubated at 37° C. in 5% CO2.
Human ileum organoids were cultured in WENRNAS (Wnt, EGF, noggin. R-spondin1. Nicotinamide. A83-01, SB202190) and typically grown for 7-12 days before being used to plate monolayer cultures. On day 0, organoid cultures embedded in Matrigel were treated with TrypLE Express to break organoids into small pieces and/or single cells. […]
Each human ileum monolayer culture well was washed twice with fresh SBM on the apical side on day 6 before compound dosing. […] On day 8, apical media pH was measured by pH electrode, to determine the ability of example compounds to produce sustained inhibition of NHE3 activity in a human monolayer culture system by preventing proton secretion into the apical compartment.

NHE3 [2] = target: T1, NHE3; assay: Sustained inhibition of apical acid secretion in human organoid monolayer cell cultures (duodenum); assay type: cell-based; conditions: 1 μM apical
[3] = system: absorption of sodium from the intestinal lumen; assay: Inhibition of intestinal sodium absorption in mice; assay type: in vivo, mouse; conditions: CD-1 mice, 15 mg/kg oral gavage twice daily for 3 days
[4] = day 3, normalized to dietary sodium intake

% inhibition (ileum) (NHE3 [1]) | % inhibition (duodenum) (NHE3 [2]) | Structure (SMILES) | Fecal fluid content (Δ from vehicle) ([3]; day 3) | Fecal Na Excretion (% of vehicle) [3, 4] | Urinary Na Excretion (% of vehicle) [3, 4]
C (>70%) | C (>70%) | CN1Cc2c(Cl)cc(Cl)cc2[C@H](c2cccc(S(=O)(=O)NCCOCCOCCNC(=O)NCCCCNC(=O)NCCOCCOCCNS(=O)(=O)c3cccc([C@@H]4CN(C)Cc5c(Cl)cc(Cl)cc54)c3)c2)C1 (single isomer, unassigned) [Example 202, (S or R)—N,N′-(10,17-dioxo-3,6,21,24-tetraoxa-9,11,16,18-tetraazahexacosane-1,26-diyl)bis(3-((S)-6,8-dichloro-2-methyl-1,2,3,4-tetrahydroisoquinolin-4-yl)benzenesulfonamide) bis-hydrochloride salt] | – | – | –
– | – | CN1Cc2c(Cl)cc(Cl)cc2[C@H](c2cccc(S(=O)(=O)NCCOCCOCCNC(=O)Nc3ccc(NC(=O)NCCOCCOCCNS(=O)(=O)c4cccc([C@@H]5CN(C)Cc6c(Cl)cc(Cl)cc65)c4)cc3)c2)C1 (single isomer, unassigned) [Example 203, (S or R)—N,N′-(2,2′-(2,2′-(2,2′-(1,4-phenylenebis(azanediyl))bis(oxomethylene)bis(azanediyl)bis(ethane-2,1-diyl))bis(oxy)bis(ethane-2,1-diyl))bis(oxy)bis(ethane-2,1-diyl))bis(3-((S or R)-6,8-dichloro-2-methyl-1,2,3,4-tetrahydroisoquinolin-4-yl)benzenesulfonamide) bis-hydrochloride salt] | C (>10) | C (>200%) | C (<50%)
